Experimental data from US9308198B2, “Treatment, prevention, and reversal of alcohol-induced brain disease” (priority 2006, dated 2016).

Legend:
[1] = tested on: primary cerebellar neuron cultures; settings: 10 mM for 3 hours; control and ethanol-exposed cultures
Method: In vitro experiments were used to examine the effects of ethanol on receptor binding and choline acetyltransferase (ChAT) and acetylcholinesterase (AChE) expression in cerebellar neurons. Primary neuronal cultures were generated with postnatal day 8 rat pup cerebellar tissue (Nikolic et al. Genes Dev. 10:816 (1996)). The cultures were maintained with Dulbecco's modified Eagle's medium (DMEM) supplemented with 5% fetal calf serum, 4 mM glutamine, 100 μM non-essential amino acid mixture (Gibco-BRL, Grand Island, N.Y.), 25 mM KCl, and 9 g/L glucose. Ethanol treatment was accomplished by placing the cultures (seeded in 6-well dishes or 96-well plates) in sealed chambers in which 50 mM ethanol was vaporized from a reservoir tray (de la Monte et al. Alcohol Clin. Exp. Res. 24:716 (2000); Banerjee et al. Alcohol Clin. Exp. Res. 22:2093 (1998)). Control cultures were identically treated but with water added to the reservoir tray. The chambers were flushed with gas containing 75% nitrogen, 20% oxygen, and 5% carbon dioxide. After 96 hours incubation at 37° C., the cells were harvested to measure insulin, IGF-I, and IGF-II receptor binding. Alternatively, the cells were serum-starved for 12 hours and then stimulated with 10 nM insulin, […], 25 nM IGF-II, or vehicle for 16 hours, and RNA was harvested to measure ChAT and AChE expression. Parallel 96-well cultures stimulated with growth factors for 10 minutes were used to measure ATP, or for 16 hours to measure viability, and ChAT or AChE immunoreactivity. […] To examine the effects of membrane cholesterol content on growth factor stimulated neuronal viability and function, identically treated 96-well cultures were stimulated with vehicle, 10 nM insulin, 10 nM IGF-I, or 25 nM IGF-II for 10 minutes and then analyzed for ATP content, or for 16 hours and then used to measure viability and ChAT or AChE immunoreactivity with the MICE assay (de la Monte et al., Biotechniques 26:1073 (1999)). ATP content was measured with the ATPLite assay (Packard, Meriden, Conn.). Viability was measured using the CyQuant assay (Molecular Probes, Eugene, Oreg.). Immunoreactivity was measured directly in the cultured wells using the microtiter immunocytochemical ELISA (MICE) assay (de la Monte et al., Biotechniques 26:1073 (1999)).
The effects of cholesterol or MβCD treatment on neuronal viability (FIGS. 19A-19C), ATP production (energy metabolism; FIGS. 19D-19F), ChAT (FIGS. […]) and AChE (FIGS. 19J-19L) immunoreactivity were examined in cells that were treated as described above and stimulated 12 hours with vehicle (control), 10 nM insulin, 10 nM IGF-I, or 25 nM IGF-II in serum-free medium. […] Viability was measured using the CyQuant assay and ATP content was measured using the ATPLite assay. […]

AChE = AChE immunoreactivity (MICE assay); assay type: cell-based; settings: 10 mM for 3 hours; control and ethanol-exposed cells
Method: In vitro experiments were used to examine the effects of ethanol on receptor binding and choline acetyltransferase (ChAT) and acetylcholinesterase (AChE) expression in cerebellar neurons. Primary neuronal cultures were generated with postnatal day 8 rat pup cerebellar tissue (Nikolic et al. Genes Dev. 10:816 (1996)). The cultures were maintained with Dulbecco's modified Eagle's medium (DMEM) supplemented with 5% fetal calf serum, 4 mM glutamine, 100 μM non-essential amino acid mixture (Gibco-BRL, Grand Island, N.Y.), 25 mM KCl, and 9 g/L glucose. […] To examine the effects of membrane cholesterol content on growth factor stimulated neuronal viability and function, identically treated 96-well cultures were stimulated with vehicle, 10 nM insulin, 10 nM IGF-I, or 25 nM IGF-II for 10 minutes and then analyzed for ATP content, or for 16 hours and then used to measure viability and ChAT or AChE immunoreactivity with the MICE assay (de la Monte et al., Biotechniques 26:1073 (1999)). ATP content was measured with the ATPLite assay (Packard, Meriden, Conn.). Viability was measured using the CyQuant assay (Molecular Probes, Eugene, Oreg.). Immunoreactivity was measured directly in the cultured wells using the microtiter immunocytochemical ELISA (MICE) assay (de la Monte et al., Biotechniques 26:1073 (1999)). […]

[2] = tested on: lipid peroxidation and DNA damage in brain; settings: rat, in vivo
Excerpt: (§1) Male (˜200 g) Long Evans rats (Charles River Laboratories, Cambridge, Mass.) were fed isocaloric liquid diets (BioServ, Frenchtown, N.J.) in which ethanol comprised 0% or 37% of the caloric content (9.25% v/v) for 6 weeks (Yeon et al., Hepatology 38:703 (2003)). A chow fed control group was also studied. Rats were monitored daily to ensure equivalent food consumption and maintenance of body weight. Upon sacrifice, the brains were harvested and either immersion fixed in Histochoice fixative (Amresco Corp., Solon, Ohio) for paraffin embedding, or sliced fresh to micro-dissect temporal cortex, hypothalamus, and cerebellum. The fresh tissue blocks were snap frozen in a dry ice-methanol bath and stored at −80° C. for mRNA and protein studies.
(§2) Fixed brains were sectioned in the coronal plane along standardized landmarks and embedded in paraffin. Paraffin-embedded sections (8 μm thick) were stained with hematoxylin and eosin, or immunostained with monoclonal antibodies to 8-hydroxy-deoxyguanosine (8-OHdG) (Oxis Research) or 4-hydroxynonenol (HNE) (Chemicon International, Temecula, Calif.) to detect DNA damage and lipid peroxidation, respectively. Prior to immunostaining, deparaffinized, re-hydrated sections were treated with 0.1 mg/ml saponin in phosphate buffered saline (10 mM sodium phosphate, 0.9% NaCl, pH 7.4; PBS) for 20 minutes at room temperature, followed by 3% hydrogen peroxide in methanol for 10 minutes to quench endogenous peroxidase activity, and then 30 minutes in SuperBlock-TBS (Pierce Chemical Co., Rockford, Ill.) at room temperature to block non-specific binding sites. The sections were incubated overnight at 4° C. with 0.5-1 μg/ml of primary antibody. Immunoreactivity was detected with biotinylated secondary antibody, avidin biotin horseradish peroxidase complex (ABC) reagents, and diaminobenzidine as the chromogen (Vector Laboratories, Burlingame, Calif.) (Lam et al. J. Biol. Chem. 269:20648 (1994)). The tissue sections were counterstained with hematoxylin and examined by light microscopy.

cerebellar cortex = settings: rat, in vivo
Excerpt: as §1, §2

| Compound | mitochondrial function (ATP content) [1] | neuronal viability [1] | mean levels of AChE (AChE) | 8-OHdG immunoreactivity (DNA damage) [2] | HNE immunoreactivity (lipid peroxidation) [2] | structural abnormalities in the cerebellar cortex (cerebellar cortex) |
| --- | --- | --- | --- | --- | --- | --- |
| CC(C)CCC[C@@H](C)[C@H]1CC[C@H]2[C@@H]3CC=C4C[C@@H](O)CC[C@]4(C)[C@H]3CC[C@]12C [cholesterol] | broadly reduced | broadly reduced | significantly increased |  |  |  |
| CCO [ethanol] |  |  |  | only detected in scattered cells | conspicuously increased cellular labeling | loss of Purkinje cells and reduced densities of cells within the internal granule layer |
| Methyl-β-cyclodextrin [MβCD] | broadly reduced | broadly reduced | significantly increased |  |  |  |
